The conditions of data set [1]: cited from earlier work.
Data set [2] in a line: Degree of hydrolysis of stearoxytrimethylsilane to stearyl alcohol in ethanol/water at varying pH, by GC analysis. Format: physicochemical. Conditions: for % Hydrolysis of Stearoxytrimethylsilane to Stearyl Alcohol: 25° C., 5 wt% in 90 wt% ethanol/5 wt% D.I. water. The text has this:
The pearlescent effect of the present invention appears to be produced by the interaction of the siloxane compound, trimethylsilylalkylsilsesquioxane in the alcoholic hydrogel. It is believed that the trimethylsilylalkylsilsesquioxanes, such as stearoxytrimethylsilane, which is initially a liquid in anhydrous form, after dispersion in the alcoholic hydrogel, undergoes a degree of hydrolysis which results in the formation of finely dispersed crystals of pure stearyl alcohol in the alcoholic hydrogel. This process continues until the pearlescent appearance, or the desired degree of opacity is achieved. The degree of pearlescence or the density of the opacity can be controlled by controlling the amount of the siloxane and other components. The pH of the mixture influences the speed of the hydrolysis reaction. Preferably, the pH of the mixture of the alcoholic hydrogel and the trimethylsilylalkylsilsesquioxane is from 3 to 6.
The degree of hydrolysis of stearoxytrimethylsilane was determined in an ethanol/water mixture at varying pH levels ranging from 4.4 to 9.1. A mixture comprising 5 weight percent anhydrous stearoxytrimethylsilane (Available from Clariant Corp., as SILCARE 1 M71), 90 weight percent ethanol and 5 weight percent de-ionized water (D.I.) was subjected to various pH levels and the degree of hydrolysis to stearyl alcohol was determined by GC analysis.

SMILES strings stand for the structures. Where only a bound is given, the exact number is not on record here.

`CCCCCCCCCCCCCCCCCCO` [Stearyl alcohol]: the solubility in alcohol entry in data set [1] (alcohol) was “soluble”. The solubility in water entry in data set [1] (water) was “insoluble”.
On to `CCCCCCCCCCCCCCCCCCO[Si](C)(C)C` [Stearoxytrimethylsilane, stearoxytrimethylsilane], for which the speed of hydrolysis entry in data set [2] (below a pH of 6) was “quickly hydrolyses”. Besides, the “% Hydrolysis of Stearoxytrimethylsilane to Stearyl Alcohol” value (shortened to “% Hydrolysis of Stearoxytrimethylsilane”) is reported as over 99% in data set [2] (pH (initial) 4.4, 2 Days); over 99% in data set [2] (pH (initial) 4.4, 14 Days); over 99% in data set [2] (pH (initial) 4.4, 15 minutes (initial)); over 99% in data set [2] (pH (initial) 5.3, 2 Days); over 99% in data set [2] (pH (initial) 5.3, 14 Days); over 99% in data set [2] (pH (initial) 5.3, 15 minutes (initial)). Besides, the “% Hydrolysis of Stearoxytrimethylsilane” value is given as 97% in data set [2] (pH (initial) 5.5, 2 Days); over 99% in data set [2] (pH (initial) 5.5, 14 Days); 55% in data set [2] (pH (initial) 5.5, 15 minutes (initial)); 36% in data set [2] (pH (initial) 6.2, 2 Days); 95% in data set [2] (pH (initial) 6.2, 14 Days); 6% in data set [2] (pH (initial) 6.2, 15 minutes (initial)). Further, the “% Hydrolysis of Stearoxytrimethylsilane” value in data set [2] (pH (initial) 8.1, 2 Days) is given as 10%; in data set [2] (pH (initial) 8.1, 14 Days), 48%; in data set [2] (pH (initial) 8.1, 15 minutes (initial)) it was 2%; in data set [2] (pH (initial) 9.1, 2 Days), 4%; in data set [2] (pH (initial) 9.1, 14 Days), 21%; in data set [2] (pH (initial) 9.1, 15 minutes (initial)) it was 2%.
